Test results reported in patent publication US20140072662A1, “Andrographis Paniculata Compositions and Methods for Treatment of Addictions” (Omeros Corporation, priority 2012, published 2014).

Experiments:
[1] = system: msP rats; assay: Yohimbine-induced reinstatement of alcohol seeking in msP rats; type: in vivo, rat; conditions: yohimbine 1.25 mg/kg i.p.; p<0.001
Description: The study was conducted using standard operant chambers (Med Associate, St Albans, Vt.) located in sound-attenuating, ventilated environmental cubicles. Each chamber was equipped with a drinking reservoir (volume capacity: 0.30 ml) positioned 4 cm above the grid floor in the centre of the front panel of the chamber, and two retractable levers located 3 cm to the right or to the left of the drinking receptacle. Auditory and visual stimuli were presented via a speaker and a light located on the front panel. A microcomputer controlled the delivery of fluids, presentation of auditory and visual stimuli, and recording of the behavioral data.
During the first 6 days of training, rats were allowed to lever-press for a 10% (v/v) alcohol solution containing 0.2% (w/v) saccharin solution, on a FR-1 schedule. In the following days, msP rats were trained to self-administer 10% alcohol solution (v/v) on a FR-1, time out 5 second (TO 5 s.) schedule of reinforcement. The TO period was signalled by illumination of a white house light above the right lever for 5 s. 10% (v/v) alcohol self-administration continued until stable baseline of responding was achieved.
After the last alcohol self-administration session, animals were subjected to 30-min extinction sessions. […]

[2] = system: Wistar rats; assay: Yohimbine-induced reinstatement of nicotine seeking in Wistar rats; type: in vivo, rat; conditions: yohimbine 1.25 mg/kg IP; p<0.001
Description: Animals are anesthetized by intramuscular injection of 100-150 μl of a solution containing tiletamine cloridrate (58.17 mg/ml) and zolazepam cloridrate (57.5 mg/ml). For IV surgery, incisions are made to expose the right jugular vein. A catheter made from micro-renathane tubing (I.D.=0.020 inches, O.D.=0.037 inches) is subcutaneously positioned between the vein and the back. After insertion into the vein, the proximal end of the catheter is anchored to the muscles underlying the vein with surgical silk. The distal end of the catheter is attached to a stainless-steel cannula bent at a 90° angle. The cannula is inserted in a support made by dental cement on the back of the animals covered with a plastic cap. […] Body weights are monitored every day and catheter patency is confirmed approximately every 3 days with an injection of 0.2-0.3 ml of thiopental sodium (250 mg/ml) solution. […]
The day after the last extinction session, in a within subject counterbalanced design animals are given Andrographis Paniculata extract OS at the doses of 0, 150; 450 mg/kg, given 1 hour prior to administration of yohimbine (1.25 mg/kg) or its vehicle. 30 minutes following the administration of yohimbine, animals (N=15) are placed in the self-administration apparatus, and lever pressesis recorded for 2 hours. […]

[3] = system: LPS-stimulated macrophages; conditions: cited from earlier work
[4] = cited from earlier work
[5] = system: msP rats; assay: Central PPAR antagonist GW9662 on andrographolide-induced reduction of alcohol intake in msP rats; type: in vivo, rat; conditions: andrographolide 10 mg/kg, 6 consecutive days; 2, 8 and 24 hours
Description: GW9662, purchased from Tocris (Bristol, UK), was dissolved in 10% DMSO and 3% Tween 80 and the final volume (5 μg/μl) was adjusted adding distilled water. GW9662 was injected ICV in a volume of 1 μl per rat by means of a stainless-steel injector 2.5 mm longer than the guide cannula, so that its tip protruded into the ventricle.
A 22-gauge guide cannula for intracerebroventricular (ICV) drug injections was stereotaxically implanted into the lateral cerebroventricle with the following coordinates: anteroposterior (AP)=1.0; lateral (L)=1.8; ventral (V)=2.0 with reference to bregma.
(§1) A widely used method for testing fluid preference is the two-bottle choice paradigm, in which water and 10% (v/v) alcohol solution were offered in graduated drinking tubes equipped with metallic drinking spouts and their consumption was measured by reading the volume consumed from the graduated tubes. Food intake was measured by weighing the food containers and taking into account spillage. Alcohol, water and food intakes are expressed as g/kg to reduce the influence of differences in body weight.
To examine whether the effect of andrographolide on alcohol intake is mediated by brain PPAR receptors, another group of msP rats (N=31) was treated ICV with 5 μg/rat of the PPAR antagonist GW9662 and then injected with andrographolide (10 mg/kg) or its vehicle. In a between-subject design each group of animals (N=7-8/group) received a different drug dose for 6 consecutive days. GW9662 or its vehicle were administered twice daily at 12 hours and 30 minutes before the beginning of the dark period of the light-dark cycle. Andrographolide was given immediately after GW9662 administrations.
Alcohol, water, and food intake was recorded at 0.5, 2, 8 and 24 hours from the moment that alcohol was made available.

[6] = in vivo, cited from earlier work
[7] = system: msP rats; assay: Two-bottle choice paradigm, voluntary 10% alcohol intake in msP rats; type: in vivo, rat; conditions: 3 days
Text: Male genetically selected alcohol-preferring rats were used. They were bred at the Department of Experimental Medicine and Public Health of the University of Camerino (Marche, Italy) for 64 generations from Sardinian alcohol-preferring (sP) rats of the 13th generation, provided by the Department of Neurosciences of the University of Cagliari (Colombo et al, 2006). They are referred to as Marchigian sP (msP) rats (Ciccocioppo et al, 2006). At the time of the experiments their body weight ranged between 300 and 350 g. They were kept in single cages in a room with a reverse 12:12 h light/dark cycle (lights off at 9:30 a.m.), temperature of 20-22° C. and humidity of 45-55%. […]
as §1, with “weight. […]” for “weight.”
Alcohol, water and food intake were monitored daily at 0.5, 2, 8 and 24 hours. For all the experiments performed, intakes were recorded for several additional days after the end of the drug treatment period. […]

[8] = clinical study; cited from earlier work
[9] = system: rat model of cerebral ischemia; conditions: in vivo; cited from earlier work

Row | Structure (SMILES) | reinstatement of operant response for alcohol vs extinction [1] | reinstatement of responding for nicotine vs extinction [2] | production of TNF-α, IL-1β and IL-12 [3] | aqueous solubility [4] | alcohol drinking [5] | oral bioavailability ([6]; po) | binding to plasma proteins [6] | voluntary alcohol intake ([7]; andrographolide 5 mg/kg i.p. twice daily) | voluntary alcohol intake ([7]; andrographolide 10 mg/kg i.p. twice daily (12 h and 30 min before dark period)) | ability to cross the brain-blood barrier [8] | neuroprotective effects [9]
1 | COC(=O)[C@@H]1[C@H]2C[C@H]3c4[nH]c5ccccc5c4CCN3C[C@@H]2CC[C@@H]1O [yohimbine] | significantly reinstated the operant response for alcohol | significant reinstatement of responding | – | – | – | – | – | – | – | – | –
2 | C=C1CC[C@@H]2[C@](C)(CO)[C@H](O)CC[C@@]2(C)[C@@H]1C/C=C1/C(=O)OC[C@H]1O [andrographolide] | – | – | inhibits | low | reduced alcohol consumption starting from the second day and for the entire duration of treatment | low | high | a statistical difference from controls was observed the last day of treatment for all the time points | the effect appeared from the second day of treatment (Day 3) and remained significant throughout the treatment period | cross the brain-blood barrier | clear neuroprotective effects
